Key:
[1] = rats; cited from earlier work
Rat IV PK = format: in vivo; details: male, Sprague-Dawley, plasma, 1 mg/kg
Stability in rat plasma = format: in vitro ADME
aldehyde oxidase (AO) = test: Metabolism in hepatic S9 fractions; format: in vitro ADME; details: rat, cynomolgus monkey and human hepatic S9 fractions
TA100 = test: Bacterial reverse mutation assay; format: cell-based, Salmonella typhimurium; details: with and without S9 metabolic activation; 0.05 to 5.0 mg/plate
TA135 = test: Bacterial reverse mutation assay; format: cell-based, Salmonella typhimurium; details: with and without S9 metabolic activation; 0.05 to 5.0 mg/plate
[2] = Cynomolgus monkey oral PK; format: in vivo; details: male, plasma, 5 mg/kg
TA1537 = test: Bacterial reverse mutation assay; format: cell-based, Salmonella typhimurium; details: with and without S9 metabolic activation; 0.05 to 5.0 mg/plate
TA98 = test: Bacterial reverse mutation assay; format: cell-based, Salmonella typhimurium; details: with and without S9 metabolic activation; 0.05 to 5.0 mg/plate
WP2 uvrA = test: Bacterial reverse mutation assay; format: cell-based, Escherichia coli; details: with and without S9 metabolic activation; 0.05 to 5.0 mg/plate
[3] = Stability in human cryopreserved hepatocytes

## Cc1csc(NC(=O)c2cc(F)cc(Oc3cncnc3)c2)n1 [compound 9]
[1]
  Clp: 43 mL/min/kg

## Cc1cccc(NC(=O)c2cc(Oc3cncnc3)cc(C)n2)n1 [compound 21, 6-Methyl-N-(6-methylpyridin-2-yl)-4-(pyrimidin-5-yloxy)picolinamide]
Rat IV PK
  clearance at 24 h: 34.2 mL/min/kg

## Cc1cccc(NC(=O)c2cc(Oc3cncc(F)c3)cc(C)n2)n1 [compound 22, 4-((5-Fluoropyridin-3-yl)oxy)-6-methyl-N-(6-methylpyridin-2-yl)picolinamide]
Rat IV PK
  clearance at 24 h: 32.5 mL/min/kg

## CCc1cccc(NC(=O)c2cc(Oc3cncnc3)cc(C)n2)n1 [compound 23, N-(6-Ethylpyridin-2-yl)-6-methyl-4-(pyrimidin-5-yloxy)picolinamide]
Rat IV PK
  clearance at 24 h: 43.7 mL/min/kg

## Cc1cc(Oc2cncc(F)c2)cc(C(=O)Nc2cccc(F)n2)n1 [compound 26, N-(6-Fluoropyridin-2-yl)-4-((5-fluoropyridin-3-yl)oxy)-6-methylpicolinamide]
Rat IV PK
  clearance at 24 h: 96 mL/min/kg
Stability in rat plasma
  stability in rat plasma: instability

## Cc1cc(Oc2cncnc2)cc(C(=O)Nc2ccc(F)cn2)n1 [compound 27, N-(5-Fluoropyridin-2-yl)-6-methyl-4-(pyrimidin-5-yloxy)picolinamide]
Aldehyde oxidase (AO)
  contribution of AO to metabolism: AO contributed significantly to the metabolism
TA100
  bacterial reverse mutation assay TA100: negative
Rat IV PK
  clearance at 24 h: 19.3 mL/min/kg
TA135
  bacterial reverse mutation assay TA135: negative
[2]
  Tmax: 3 h
TA1537
  bacterial reverse mutation assay TA1537: negative
TA98
  bacterial reverse mutation assay TA98: negative
WP2 uvrA
  bacterial reverse mutation assay WP2 uvrA: negative
[3]; both, cryopreserved hepatocytes (pooled, 19 donors)
  half-life at 5 µM: > 5 h
[3]; predicted from hepatocytes
  predicted hepatic clearance (CLHEP): 3.59 mL/min/kg

## Cc1cc(Oc2cncc(F)c2)cc(C(=O)Nc2ccc(F)cn2)n1 [compound 28, N-(5-Fluoropyridin-2-yl)-4-((5-fluoropyridin-3-yl)oxy)-6-methylpicolinamide]
Rat IV PK
  clearance at 24 h: 9.2 mL/min/kg
[2]
  Tmax: 2 h

## Cc1cc(Oc2cnc(C)nc2)cc(C(=O)Nc2ccc(F)cn2)n1 [compound 33, N-(5-Fluoropyridin-2-yl)-6-methyl-4-((2-methylpyrimidin-5-yl)oxy)picolinamide]
Rat IV PK
  clearance at 24 h: 6.2 mL/min/kg

Source: publication PMC5484149 (Journal of Medicinal Chemistry, 2017)
